Data reported in patent US20230146455A1, “TREATMENT OF INFLAMMATORY DISEASES WITH PEPTIDES AND PHARMACEUTICAL COMPOSITIONS” (Yuyu Pharma, Inc., priority 2020, published 2023).
Several values for one entry are separate records, joined by “and”; a condition that tells them apart may be missing. Equal values may be shown once. Where a SMILES comes first, the peptide text is derived from it. [ ]: non-standard residue; d: D form. Hyp = O=C(O)[C@@H]1C[C@@H](O)CN1

System: IL-6
Test: Example 9 Luminex, LPS hPBMCs: IL-6
Format: cell-based, human
Conditions: Bead IL-6
Method: Treatment Human PBMCs were pretreated with YY-101, YDE-011 and YDE-043 or reference compound; Xiidra® at various concentration (ranging from 1 nM to 100 uM) for 2 h before stimulation. An equal volume of 0.5% DMSO was used as a vehicle control. Then, the cells were treated with LPS at 5 ug/ml. The supernatants from treated cells were harvested at 24 h and placed in a 96 well for Luminex cytokine & chemokine profiling using a Luminex 200 multiplex assay (Luminex; R&D system, USA).
The main study arm with triplicate wells per group in a 24-well plate: • 1. Blank • 2. PBMC: 0.5% DMSO • 3. PBMC+LPS (5 ug/ml) • 4. PBMC+YY-101 100 uM • 5. PBMC+YY-101 10 uM • 6. PBMC+YY-101 1 uM • 7. PBMC+YY-101 0.1 uM • 8. PBMC+YY-101 0.01 uM • 9. PBMC+LPS (5 ug/ml)+Xiidra®100 uM • 10. PBMC+LPS (5 ug/ml)+Xiidra® 10 uM • 11. PBMC+LPS (5 ug/ml)+Xiidra® 1 uM • 12. PBMC+LPS (5 ug/ml)+Xiidra®0.1 uM • 13. PBMC+LPS (5 ug/ml)+Xiidra®0.01 uM • 14. PBMC+LPS (5 ug/ml)+Xiidra®0.001 uM • 15. PBMC+LPS (5 ug/ml)+YY-101 100 uM • 16. PBMC+LPS (5 ug/ml)+YY-101 10 uM • 17. PBMC+LPS (5 ug/ml)+YY-101 1 uM • 18. PBMC+LPS (5 ug/ml)+YY-101 0.1 uM • 19. PBMC+LPS (5 ug/ml)+YY-101 0.01 uM • 20. PBMC+LPS (5 ug/ml)+YY-101 0.001 uM • 21. PBMC+LPS (5 ug/ml)+YDE-011 100 uM • 22. PBMC+LPS (5 ug/ml)+YDE-011 10 uM • 23. PBMC+LPS (5 ug/ml)+YDE-011 1 uM • 24. PBMC+LPS (5 ug/ml)+YDE-011 0.1 uM • 25. PBMC+LPS (5 ug/ml)+YDE-011 0.01 uM • 26. PBMC+LPS (5 ug/ml)+YDE-011 0.001 uM • 27. PBMC+LPS (5 ug/ml)+YDE-043 100 uM • 28. PBMC+LPS (5 ug/ml)+YDE-043 10 uM • 29. PBMC+LPS (5 ug/ml)+YDE-043 1 uM • 30. PBMC+LPS (5 ug/ml)+YDE-043 0.1 uM • 31. PBMC+LPS (5 ug/ml)+YDE-043 0.01 uM • 32. PBMC+LPS (5 ug/ml)+YDE-043 0.001 uM
Multiplex assay was used to measure 30 cytokines and chemokines. The 1:2, 1:10 and 1:200 diluted cell supernatant and serial dilution of the standard were dispensed into a 96 well plate at 50 ul/well. Then, the pre-mixed cocktail of antibody-coated magnetic beads was dispensed at 50 ul/well and incubated at room temperature for 2 h in a horizontal orbital microplate shaker at 800±500 rpm. The beads were washed using a magnetic device to prevent loss. The biotin-antibody was dispensed in 50 ul of each well and incubated at room temperature for 1 h in a shaker at 800±500 rpm. After washing, streptavidin-PE was added at 50 ul/well and incubated at room temperature for 30 min in a shaker under the same conditions. Finally, after washing, wash buffer (100 ul/well) was added to the plate and incubated in a shaker for 2 min. The Luminex™ 200 setting were set according to the manufacturer's protocol. The data was calculated with a standard five-parameter logistic nonlinear regression analysis of the data (xPonent software 4.2, USA). The levels of cytokine/chemokine are normalized to the live cell counts (1×10^5 cells/mL) and presented as concentrations per mL (pg/mL or ng/mL).

[1] = PBMC + LPS(5 ug/ml), 0.01 uM, single replicates
[2] = PBMC + LPS(5 ug/ml), 0.1 uM, Mean
[3] = PBMC + LPS(5 ug/ml), 0.1 uM, single replicates
[4] = PBMC + LPS(5 ug/ml), 1 uM, Mean
[5] = PBMC + LPS(5 ug/ml), 1 uM, single replicates
[6] = PBMC + LPS(5 ug/ml), 10 uM, Mean
[7] = PBMC + LPS(5 ug/ml), 10 uM, single replicates
[8] = PBMC + LPS(5 ug/ml), 100 uM, Mean
[9] = PBMC + LPS(5 ug/ml), 100 uM, single replicates
[10] = PBMC without LPS, 0.01 uM, Mean
[11] = PBMC without LPS, 0.01 uM, single replicates
[12] = PBMC without LPS, 0.1 uM, single replicates
[13] = PBMC without LPS, 1 uM, single replicates
[14] = PBMC without LPS, 10 uM, single replicates
[15] = PBMC without LPS, 100 uM, single replicates

`CC(C)C[C@H](NC(=O)CNC(=O)[C@H](CC(=O)O)NC(=O)[C@H](CCC(N)=O)NC(=O)CNC(=O)[C@@H]1C[C@@H](O)CN1)C(=O)N[C@@H](C)C(=O)NCC(=O)N1CCC[C@H]1C(=O)N[C@@H](CCCCN)C(=O)O` [YY-101] (H-[Hyp]GQDGLAGPK-OH; N-terminus and C-terminus assumed) was tested, and the conc/live cell (PBMC + LPS(5 ug/ml), 0.01 uM, Mean) was 2159.4 pg/10^5, the Concentration [1] was 13276.3 pg/mL and 13531.9 pg/mL and 13106.0 pg/mL and the MFI [1] was 378.3 and 385.8 and 373.3. For the same compound, the conc/live cell [1] was 2074.4 pg/10^5 and 2255.3 pg/10^5 and 2148.5 pg/10^5, the Concentration [2] was 12816.4 pg/mL and the MFI [2] was 364.8. The conc/live cell [2] was 2203.2 pg/10^5, the Concentration [3] was 12441.7 pg/mL and 13157.1 pg/mL and 12850.5 pg/mL and the MFI [3] was 353.8 and 374.8 and 365.8. The conc/live cell [3] was 2006.7 pg/10^5 and 2530.2 pg/10^5 and 2072.7 pg/10^5, the Concentration [4] was 13020.8 pg/mL and the MFI [4] was 370.8. The conc/live cell [4] was 2001.1 pg/10^5, the Concentration [5] was 13242.2 pg/mL and 12867.5 pg/mL and 12952.6 pg/mL and the MFI [5] was 377.3 and 366.3 and 368.8. The conc/live cell [5] was 2101.9 pg/10^5 and 1812.3 pg/10^5 and 2089.1 pg/10^5, the Concentration [6] was 14020.8 pg/mL and the MFI [6] was 400.1. The conc/live cell [6] was 2132.1 pg/10^5, the Concentration [7] was 13975.0 pg/mL and 15049.6 pg/mL and 13037.8 pg/mL and the MFI [7] was 398.8 and 430.3 and 371.3. For the same compound, the conc/live cell [7] was 2329.2 pg/10^5 and 2351.5 pg/10^5 and 1715.5 pg/10^5, the Concentration [8] was 15533.5 pg/mL and the MFI [8] was 444.4. For the same compound, the conc/live cell [8] was 2685.2 pg/10^5, the Concentration [9] was 16142.7 pg/mL and 15459.3 pg/mL and 14998.4 pg/mL and the MFI [9] was 462.3 and 442.3 and 428.8. For the same compound, the conc/live cell [9] was 2562.3 pg/10^5 and 2493.4 pg/10^5 and 2999.7 pg/10^5, the MFI [10] was 3.3 and the conc/live cell [10] was 0.0 pg/10^5. For the same compound, the MFI [11] was 4.3 and 2.3, the conc/live cell [11] was 0.0 pg/10^5 and the MFI (PBMC without LPS, 0.1 uM, Mean) was 1.3. For the same compound, the conc/live cell (PBMC without LPS, 0.1 uM, Mean) was 0.0 pg/10^5, the MFI [12] was 1.3 and the conc/live cell [12] was 0.0 pg/10^5. The MFI (PBMC without LPS, 1 uM, Mean) was 1.8, the conc/live cell (PBMC without LPS, 1 uM, Mean) was 0.0 pg/10^5 and the MFI [13] was 2.3 and 1.3. It also gave a conc/live cell [13] of 0.0 pg/10^5, a Concentration (PBMC without LPS, 10 uM, Mean) of 880.7 pg/mL and an MFI (PBMC without LPS, 10 uM, Mean) of 15.3. The conc/live cell (PBMC without LPS, 10 uM, Mean) was 68.8 pg/10^5, the Concentration [14] was 880.7 pg/mL and the MFI [14] was 27.3 and 3.3. For the same compound, the conc/live cell [14] was 137.6 pg/10^5 and 0.0 pg/10^5, the Concentration (PBMC without LPS, 100 uM, Mean) was 524.7 pg/mL and the MFI (PBMC without LPS, 100 uM, Mean) was 15.8. For the same compound, the conc/live cell (PBMC without LPS, 100 uM, Mean) was 41.0 pg/10^5, the Concentration [15] was 524.7 pg/mL and the MFI [15] was 19.8 and 11.8. The conc/live cell [15] was 82.0 pg/10^5 and 0.0 pg/10^5.
